Measured values as given in patent US20230310390A1, “INHIBITORS OF SHORT-CHAIN DEHYDROGENASE ACTIVITY FOR TREATING NEURODEGENERATION” (CASE WESTERN RESERVE UNIVERSITY, priority 2020, published 2023).
Read-outs that look alike come from different tables or passages of the source.

Key:
neurons = conditions: in vitro, activation of the EP2 receptors; cited from earlier work
[1] = system: C57/B6 mice exposed to TBI; test: Silver staining for axon degeneration after TBI; format: in vivo; conditions: 3 weeks after TBI, 5 mg/kg twice daily started 24 hours after injury; 5 mg/kg
Protocol: 8 week old C57/B6 mice were exposed to sham-injury or TBI. Twice daily treatment with 5 mg/kg (+)-SW033291, 5 mg/kg (−)-SW033291, or vehicle was started 24 hours after injury and continued throughout the duration of the experiment. Animals were sacrificed by transcardial perfusion 3 weeks after TBI or sham-injury, and fixed brains were processed for silver staining. […] Individual mouse data points are shown on the graph. Data was analyzed using two-way repeated measures ANOVA; * p<0.05, ** p<0.01. All data is mean±SEM.

[2] = cited from earlier work

CCCC1([C@H](O)C/C=C/[C@H]2[C@H](O)CC(=O)[C@@H]2CCCCCCC(=O)OC)CCC1 [butaprost]
protection of neurons from amyloid peptide neurotoxicity (neurons): protected neurons from amyloid 0-peptide neurotoxicity in vitro

CCCC[S+]([O-])c1sc2nc(-c3cccs3)cc(-c3ccccc3)c2c1N (single isomer, unassigned; (-)) [(−)-SW033291, reference compound]
silver staining (axon degeneration) [1]: protection was not noted

CCCCC[C@H](O)/C=C/[C@H]1[C@H](O)CC(=O)[C@@H]1C/C=C\CCCC(=O)O [PGE2, prostaglandin E2]
half-life ([2]; following intravenous injection): less than 1 min. | half-life ([2]; in the circulatory system): approximately 30 sec.
